Measurements reported in patent US12172986B2, “Splicing modulator antibody-drug conjugates and methods of use” (EISAI R&D MANAGEMENT CO., LTD., priority 2018, dated 2024).

Key:
[1] = system: PC3 cells; assay: Cell viability, EPHA2-expressing PC3; type: cell-based; settings: for GI50: Homo sapiens, PC-3, corresponding payload alone; for Payload LD50: corresponding payload alone
Protocol: (§2) HCC1954 (American Type Culture Collection (ATCC)) breast ductal carcinoma cells were plated at 2000 cells/well in flat bottom 96-well tissue culture plates (Corning) in a total volume of 90 μL tissue culture medium supplemented with 10% fetal bovine serum (ThermoFisher Scientific). Cells were treated with a 3-fold serial dilution of compound from 200 nM to 0.03 nM. Each concentration was tested in triplicate. At the time of treatment, a plate of untreated cells was evaluated using CellTiter-Glo®2.0 Luminescent Cell Viability Assay according to the manufacturer's recommendations (Promega; #G9241). CellTiter-Glo® 2.0 reagent was added to the medium, incubated, and assayed on an EnVision Multilabel Reader (PerkinElmer). Values represent time zero (TO). […] Percentage growth inhibition was calculated as: [(T144-T0)/(C-TO)]×100 for concentrations for which T144>/=TO or [(T144-T0)/T0]×100 for concentrations for which T144<TO. The dose response curve plots were generated using Prism 7 (Graphpad) and fit using nonlinear regression analysis and the log(inhibitor) versus response-variable slope (four parameters).

[2] = system: Ad2.1 pre-mRNA splicing; assay: In vitro splicing (IVS) RT-qPCR, Ad2.1 pre-mRNA, HeLa nuclear extract; type: biochemical; settings: payload of the ADC; read-out: qPCR-IVS-AT S Gmean IC50 (nm) Ad2.1 HELA.2
Protocol: HeLa nuclear extract preparation: HeLa S3 cell pellets were resuspended in hypotonic buffer (10 mM HEPES pH 7.9, 1.5 mM MgCl2, 10 mM KCl, 0.2 mM PMSF, 0.5 mM DTT) and the suspension was brought up to a total of 5 packed cell volume (PCV). After centrifugation, the supernatant was discarded, and the cells were brought up to 3 PCV with hypotonic buffer and incubated on ice for 10 min. Cells were lysed using a dounce homogenizer and then centrifuged. […] The nuclei were gently mixed for 30 min before centrifuging. The supernatant (nuclear extract) was then dialyzed into storage buffer (20 mM HEPES pH 7.9, 100 mM KCl, 0.2 mM EDTA, 20% glycerol, 0.2 mM PMSF, 0.5 mM DTT). Protein concentration was determined using NanoDrop 8000 UV-Vis spectrophotometer (ThermoFisher Scientific).
IVS: All Ad2-derived sequences (Pellizzoni et al. (1998) Cell 95(5):615-24) were cloned into pcDNA3.1(+) vector (Promega) using 5′ EcoRI and 3′ Xbal restriction sites. The plasmids were linearized using Xbal and used as DNA templates in in vitro transcription reactions. The FtzΔi intron-less plasmid (Luo and Reed (1999) 96(26):14937-42) was linearized using EcoRI. All RNAs were in vitro transcribed and then purified using MEGAScript T7 (Invitrogen) and MegaClear (Invitrogen) kits, respectively. For splicing reactions using Ad2 variant pre-mRNAs, 1 μL reactions were prepared using 8 μg nuclear extracts prepared from HeLa S3, 2 ng pre-mRNA, 0.2 ng FTZΔi, and varying concentrations of compounds or DMSO. After a 15 min pre-incubation at 30° C., 1 μL splicing activation buffer (0.5 mM ATP, 20 mM creatine phosphate, 1.6 mM MgCl2) was added, and the reactions were incubated for 90 min at 30° C. The reactions were then quenched with 13 μL DMSO, and 25 nL was used for RT-qPCR. RT-qPCR reactions were prepared using TaqMan RNA-to-CT 1-step kit (Life Technologies), RNA from splicing reactions, Ad2 (forward: [sequence]; reverse: [sequence]; probe: [sequence]) and Ftz (forward: [sequence]; reverse: [sequence]; probe: [sequence]) mRNA primer-probe sets. Prism 7 (Graphpad) was used for non-linear regression curve fitting of the formed spliced product and normalized to the control (DMSO) sample.

[3] = Caco-2 permeability of ADC payload; type: in vitro ADME; settings: human, Caco-2, payload; for efflux ratio at 2 h, 10 μM: B-A/A-B, read-out: Eflux ratio
Protocol: (§1) Integrity of cell monolayer was confirmed by TEER (transepithelial electrical resistance) and Lucifer yellow. Payloads were spiked in duplicate at 10 μM, separately, on both sides of the cell monolayer. Permeability rates from the apical to basolateral (A-B) direction and the basolateral to apical (B-A) direction were determined by sampling aliquots from both chambers immediately after treatment (t=0) and following incubation for 2 hours. Samples were protein precipitated with organic solvent containing internal standard and analyzed by LC-MS/MS (SCIEX; API 5500). The area ratio responses of payload/internal standard over time in both directions were used to generate permeability (cm/see) values. Efflux ratio was calculated by dividing B-A/A-B. Control compounds for low and high permeability and efflux behaved as expected.

[4] = system: THP1.1; assay: Payload cell potency and lethality CTGlo 72 h, THP1.1; type: cell-based; settings: for CTGlo-AT S GMean LD50 (nM) 72 h THP1.1: payload; for GI50: read-out: CTGlo-AT S GMean GI50 (nM) Ad2.2 HELA.2
[5] = system: Ad2.2 pre-mRNA splicing; assay: In vitro splicing (IVS) RT-qPCR, Ad2.2 pre-mRNA, HeLa nuclear extract; type: biochemical; settings: payload of the ADC; read-out: qPCR-IVS-AT S GMean IC50 (nM) Ad2.2 HELA.2
Protocol: To evaluate payload activity in a cell-free system, an in vitro splicing assay was performed. The payloads were incubated with nuclear extracts and pre-mRNA substrate minigenes.
HeLa nuclear extract preparation: HeLa S3 cell pellets were resuspended in hypotonic buffer (10 mM HEPES pH 7.9, 1.5 mM MgCl2, 10 mM KCl, 0.2 mM PMSF, 0.5 mM DTT) and the suspension was brought up to a total of 5 packed cell volume (PCV). After centrifugation, the supernatant was discarded, and the cells were brought up to 3 PCV with hypotonic buffer and incubated on ice for 10 min. Cells were lysed using a dounce homogenizer and then centrifuged. […]. The nuclei were gently mixed for 30 min before centrifuging. The supernatant (nuclear extract) was then dialyzed into storage buffer (20 mM HEPES pH 7.9, 100 mM KCl, 0.2 mM EDTA, 20% glycerol, 0.2 mM PMSF, 0.5 mM DTT). Protein concentration was determined using NanoDrop 8000 UV-Vis spectrophotometer (ThermoFisher Scientific).
IVS: All Ad2-derived sequences (Pellizzoni et al. (1998) Cell 95(5):615-24) were cloned into pcDNA3.1(+) vector (Promega) using 5′ EcoRI and 3′ Xbal restriction sites. The plasmids were linearized using Xbal and used as DNA templates in in vitro transcription reactions. The FtzΔi intron-less plasmid (Luo and Reed (1999) 96(26):14937-42) was linearized using EcoRI. All RNAs were in vitro transcribed and then purified using MEGAScript T7 (Invitrogen) and MegaClear (Invitrogen) kits, respectively. For splicing reactions using Ad2 variant pre-mRNAs, 1 μL reactions were prepared using 8 μg nuclear extracts prepared from HeLa S3, 2 ng pre-mRNA, 0.2 ng FTZΔi, and varying concentrations of compounds or DMSO. After a 15 min pre-incubation at 30° C., 1 μL splicing activation buffer (0.5 mM ATP, 20 mM creatine phosphate, 1.6 mM MgCl2) was added, and the reactions were incubated for 90 min at 30° C. The reactions were then quenched with 13 μL DMSO, and 25 nL was used for RT-qPCR. RT-qPCR reactions were prepared using TaqMan RNA-to-CT 1-step kit (Life Technologies), RNA from splicing reactions, Ad2 (forward: […]; reverse: […]; probe: […]) and Ftz (forward: […]; reverse: […]; probe: […]) mRNA primer-probe sets. Prism 7 (Graphpad) was used for non-linear regression curve fitting of the formed spliced product and normalized to the control (DMSO) sample. […] In the presence of payload, a decrease in the amount of spliced product was observed.

[6] = system: HCC1954 cells; assay: Cell viability CellTiter-Glo, HCC1954; type: cell-based; settings: unconjugated payload of the ADC
Protocol: as §2
(§3) HCC1954 (ATCC), 2000 cells/well), N87 (ATCC, 4000 cells/well), SKBR3 (ATCC, 3000 cells/well), and MCF7 (ATCC, 1500 cells/well) cell lines were used.

[7] = system: MCF7 cells; assay: Cell viability CellTiter-Glo, HER2-negative MCF7; settings: unconjugated payload of the ADC
Protocol: HCC1954 (American Type Culture Collection (ATCC)) breast ductal carcinoma cells were plated at 2000 cells/well in flat bottom 96-well tissue culture plates (Corning) in a total volume of 90 μL tissue culture medium supplemented with 10% fetal bovine serum (ThermoFisher Scientific). Cells were treated with a 3-fold serial dilution of compound from 200 nM to 0.03 nM. Each concentration was tested in triplicate. At the time of treatment, a plate of untreated cells was evaluated using CellTiter-Glo®2.0 Luminescent Cell Viability Assay according to the manufacturer's recommendations (Promega; #G9241). CellTiter-Glo® 2.0 reagent was added to the medium, incubated, and assayed on an EnVision Multilabel Reader (PerkinElmer). Values represent time zero (TO). […] Using the luminescence value at time zero (TO), DMSO control growth (C), and test growth in the presence of compound (T144), the percentage growth was calculated at each of the compound concentrations levels. Percentage growth inhibition was calculated as: [(T144-T0)/(C-TO)]×100 for concentrations for which T144>/=TO or [(T144-T0)/T0]×100 for concentrations for which T144<TO. The dose response curve plots were generated using Prism 7 (Graphpad) and fit using nonlinear regression analysis and the log(inhibitor) versus response-variable slope (four parameters).
as §3

[8] = system: N87 cells; assay: Cell viability CellTiter-Glo, N87; type: cell-based, human; settings: unconjugated payload of the ADC
Protocol: as §2, §3

[9] = system: MOLP8 cells; assay: Cell viability, CD138-expressing MOLP8; type: cell-based; settings: unconjugated payload of the ADC
Protocol: as §2

[10] = system: Caco-2 cells; assay: Caco-2 permeability of ADC payload; type: in vitro ADME; settings: for Perm. Mean Caco-2 A-B Perm (10e-6 cm/s) / Perm. Mean Caco-2 B-A Perm (10e-6 cm/s): corresponding free payload of the ADC
Protocol: as §1

Row | Structure (SMILES) | Payload LD50 [1] | IC50 [2] | CTGlo-AT S GMean LD50 (nM) 72 h THP1.1 [4] | IC50 [5] | efflux ratio at 2 h, 10 μM [3] | also measured
1 | C/C(=C\c1cc(F)cc(N2CCN(S(=O)(=O)c3cnn(C)c3)CC2)c1)[C@H]1OC(=O)C[C@H](O)CC[C@H](C)[C@@H](OC(=O)N2CCNCC2)/C=C/[C@@H]1C [D28] | >400 nM |  |  |  |  | GI50 [1]: > 400 nM
2 | CC[C@H](O)[C@@H](C)[C@H]1O[C@@H]1C[C@@](C)(O)/C=C/C=C(\C)[C@H]1OC(=O)C[C@H](O)CC[C@@](C)(OC)[C@@H](OC(=O)N2CCNC(CCC(=O)O)C2)/C=C/[C@@H]1C (stereo partly drawn) [D22, 3-(4-((((2S,3S,6S,7R,10R,E)-10-hydroxy-2-((R,2E,4E)-6-hydroxy-7-((2R,3R)-3-((2R,3S)-3-hydroxypentan-2-yl)oxiran-2-yl)-6-methylhepta-2,4-dien-2-yl)-7-methoxy-3,7-dimethyl-12-oxooxacyclododec-4-en-6-yl)oxy)carbonyl)piperazin-2-yl)propanoic acid] |  | 66.3 nM | 1594.636 nM | 49.1 nM |  | Papp B→A at 2 h, 10 μM ([3]; 10 μM, 2 hours, basolateral to apical, read-out: Permeability Mean Caco-2 B-A Perm (10e-Gcm/s)): 0.18 ×10⁻⁶ cm/s
3 | CC[C@H](O)[C@@H](C)[C@H]1O[C@@H]1C[C@H](C)/C=C/C=C(\C)[C@H]1OC(=O)C[C@H](O)CC[C@@](C)(OC(C)=O)[C@@H](OC(=O)N2CCNCC2)/C=C/[C@@H]1C [D9] |  | 20.2 nM | 3.56 nM | 18.1 nM | 14 | 
4 | CC[C@H](O)[C@@H](C)[C@H]1O[C@@H]1C[C@@](C)(O)/C=C/C=C(\C)[C@H]1OC(=O)C[C@H](O)CC[C@@](C)(O)[C@@H](OC(=O)N2CCN(C3CCCCCC3)CC2)/C=C/[C@@H]1C [D11, E7107] |  | 10.5 nM | 8.086 nM | 9.36 nM |  | GI50 [4]: 1.35 nM
5 | C/C(=C\c1cc(F)cc(N2CCN(CC(=O)O)CC2)c1)[C@H]1OC(=O)C[C@H](O)CC[C@H](C)[C@@H](OC(=O)N2CCNCC2)/C=C/[C@@H]1C [D33, 2-(4-(3-fluoro-5-((E)-2-((2S,3S,6R,7S,10R,E)-10-hydroxy-3,7-dimethyl-12-oxo-6-((piperazine-1-carbonyl)oxy)oxacyclododec-4-en-2-yl)prop-1-en-1-yl)phenyl)piperazin-1-yl)acetic acid] |  | 33.4 nM | 5202.992 nM | 72.4 nM |  | GI50 [4]: 196 nM
6 | CC[C@H](O)[C@@H](C)[C@H]1O[C@@H]1C[C@@](C)(O)/C=C/C=C(\C)[C@H]1OC(=O)C[C@H](O)CC[C@@](C)(OC)[C@@H](OC(=O)N(C)CCNC)/C=C/[C@@H]1C [D20, (2S,3S,6S,7R,10R,E)-10-hydroxy-2-((R,2E,4E)-6-hydroxy-7-((2R,3R)-3-((2R,3S)-3-hydroxypentan-2-yl)oxiran-2-yl)-6-methylhepta-2,4-dien-2-yl)-7-methoxy-3,7-dimethyl-12-oxooxacyclododec-4-en-6-yl methyl(2-(methylamino)ethyl)carbamate] |  | 10.9 nM | 113.557 nM | 8.75 nM |  | 
7 | CC[C@H](O)[C@@H](C)[C@H]1O[C@@H]1C[C@H](C)/C=C/C=C(\C)[C@H]1OC(=O)C[C@H](O)CC[C@@](C)(OC)[C@@H](OC(=O)N2CCNCC2)/C=C/[C@@H]1C [D18, (2S,3S,6S,7R,10R,E)-10-hydroxy-2-((S,2E,4E)-7-((2R,3R)-3-((2R,3S)-3-hydroxypentan-2-yl)oxiran-2-yl)-6-methylhepta-2,4-dien-2-yl)-7-methoxy-3,7-dimethyl-12-oxooxacyclododec-4-en-6-yl piperazine-1-carboxylate] | >400 nM | 12.7 nM | 4.355 nM | 12.7 nM |  | Payload LD50 [6]: 0.787 nM; Payload Rmin (%) [6]: −90.055%; Payload LD50 [7]: 7.697 nM; Payload Rmin (%) [7]: −68.226%; GI50 [1]: 1.41 nM; Payload LD50 [8]: 2.993 nM
8 | CC(=O)N1CCC(n2nnc3c(F)cc(/C=C(\C)[C@H]4OC(=O)C[C@H](O)CC[C@H](C)[C@@H](OC(=O)N5CCNCC5)/C=C/[C@@H]4C)cc32)CC1 [D14] | >400 nM | 10 nM | 25.594 nM | 8.59 nM | 202 | Payload LD50 [7]: 77.198 nM; Payload Rmin (%) [7]: −61.886%; GI50 [4]: 3.58 nM; Payload LD50 [8]: >200 nM; LD50 (nM) (payload) [9]: 8.5 nM; Rmin (%) (payload) [9]: −61%
9 | C/C(=C\c1cc(F)cc(N2CCN(C(=O)Cn3cccn3)CC2)c1)[C@H]1OC(=O)C[C@H](O)CC[C@H](C)[C@@H](OC(=O)N2CCN(C)CC2)/C=C/[C@@H]1C [D26] |  | 18.8 nM | 28.483 nM | 14.3 nM | 2.58 | 
10 | CC[C@H](O)[C@@H](C)[C@H]1O[C@@H]1C[C@@](C)(O)/C=C/C=C(\C)[C@H]1OC(=O)C[C@H](O)CC[C@@](C)(O)[C@@H](OC(=O)N2CCNCC2)/C=C/[C@@H]1C [D12, (2S,3S,6S,7R,10R,E)-7,10-dihydroxy-2-((R,2E,4E)-6-hydroxy-7-((2R,3R)-3-((2R,3S)-3-hydroxypentan-2-yl)oxiran-2-yl)-6-methylhepta-2,4-dien-2-yl)-3,7-dimethyl-12-oxooxacyclododec-4-en-6-yl piperazine-1-carboxylate] |  |  |  |  |  | Perm. Mean Caco-2 A-B Perm (10e-6 cm/s) [10]: 0.17 10e-6 cm/s; Perm. Mean Caco-2 B-A Perm (10e-6 cm/s) [10]: 0.23 10e-6 cm/s; efflux ratio (in words) ([10]; payload): low efflux ratio
11 | CC[C@H](O)[C@@H](C)[C@H]1O[C@@H]1C[C@H](C)/C=C/C=C(\C)[C@H]1OC(=O)C[C@H](O)CC[C@@](C)(OC(=O)N2CCNCC2)[C@@H](OC(C)=O)/C=C/[C@@H]1C [D13] |  | 11.3 nM | 3.358 nM | 8.82 nM | 19.1 | 
12 | CC[C@H](O)[C@@H](C)[C@H]1O[C@@H]1C[C@@](C)(O)/C=C/C=C(\C)[C@H]1OC(=O)C[C@H](O)CC[C@@](C)(OC(=O)N2CCNCC2)[C@@H](OC(C)=O)/C=C/[C@@H]1C [D8, (2S,3S,6S,7R,10R,E)-6-acetoxy-10-hydroxy-2-((R,2E,4E)-6-hydroxy-7-((2R,3R)-3-((2R,3S)-3-hydroxypentan-2-yl)oxiran-2-yl)-6-methylhepta-2,4-dien-2-yl)-3,7-dimethyl-12-oxooxacyclododec-4-en-7-yl piperazine-1-carboxylate] | 177.783 nM | 11.4 nM | 38.969 nM | 9.03 nM | 15.9 | Payload LD50 [6]: 11.175 nM; Payload Rmin (%) [6]: −80.463%; Payload LD50 [7]: 181.521 nM; Payload Rmin (%) [7]: −62.957%; Perm. Mean Caco-2 A-B Perm (10e-6 cm/s) [10]: 0.128 10e-6 cm/s; Perm. Mean Caco-2 B-A Perm (10e-6 cm/s) [10]: 2.027 10e-6 cm/s; Payload LD50 [8]: >200 nM
